Patent publication US20090017139A1, “Iodine therapy dosing for treating medical conditions” (priority 2007, published 2009)
Read-outs that look alike come from different tables or passages of the source.

Assays:
iodine naive women = assay: Example 3: I2 safety study, treatment emergent thyroid status in iodine naive women; assay type: in vivo, human; settings: for Hyperthyroidism Overt ↓TSH ↑T4 / Hyperthyroidism Sub-clinical ↓TSH / Hypothyroidism Overt ↑TSH (5-10) ↓T4 / Hypothyroidism Overt ↑TSH (10-20) ↓T4 / Hypothyroidism Overt ↑TSH (>20) ↓T4 / Hypothyroidism Sub-clinical ↑TSH (5-10) / Hypothyroidism Sub-clinical ↑TSH (10-20) / Hypothyroidism Sub-clinical ↑TSH (>20): iodine naive, patients (percent of dose group)
Description: A second I2 safety study was conducted in women not previously exposed to iodine therapy (iodine naïve). […] Thyroid functions laboratory values were available for 365 patients. The age of the female participants ranged from 20 to 55; the average age was 42.4 years. Variations in treatment emergent thyroid status were evaluated based on TSH and T4 values (see Table 2). […] Patients were categorized sub-clinical hypothyroid if TSH was elevated and T4 values were normal; patients with depressed T4 values were considered overtly hypothyroid.
Sub-clinical hyperthyroidism is not correlated to an increased rate of either overt hyperthyroidism or overt hypothyroidism. On the other hand, it is well established that sub-clinical hypothyroidism is a risk factor for overt hypothyroidism. In fact, as stated in Example 2, antibodies to thyroid peroxidase combined with sub-clinical hypothyroidism are established risk factors for overt thyroid disease in women between the age of 30 and 50. Therefore the key question is whether or not dose is related to the frequency of sub-clinical hypothyroidism. Kendall's rank correlation was used to evaluate the relationship between dose and frequency of sub-clinical hypothyroidism.

[1] = I2 compared to iodide, cited from earlier work
[2] = cited from earlier work
[3] = in drinking water, 100 days; cited from earlier work
[4] = reacts with water at neutral pH; cited from earlier work
women with mastalgia = settings: cited from earlier work; for patients reporting headaches: 6 month study
[5] = test system: euthyroid mastalgia patients; assay: Example 1: multi-center, randomized, double-blind, placebo-controlled 6 month mastalgia study; assay type: in vivo, human; settings: for change in the Lewin Overall pain scale: 6.0 mg/d
Description: A multi-center, randomized, double-blind, placebo-controlled study dosed patients for 6 months with 0.0, 1.5, 3.0 and 6.0 mg I2 daily. Healthy euthyroid mastalgia patients between the ages of 18 and 50 who were unresponsive to conservative treatments like OTC analgesics were eligible for the study. Subjects needed to identify a history of at least six months of moderate or severe breast pain and document at least 6 days per cycle of moderate or severe pain in a daily dairy (FIG. 1 below).

[6] = test system: female patients with fibrocystic breast condition; assay: Example 2: 36 month study, treatment emergent thyroid status in iodine adapted patients; assay type: in vivo, human; settings: for Hyperthyroidism Overt ↓TSH ↑T4 / Hyperthyroidism Subclinical ↓TSH / Hypothyroidism Overt ↑TSH (5-10) ↓T4 / Hypothyroidism Overt ↑TSH (10-20) ↓T4 / Hypothyroidism Overt ↑TSH (>20) ↓T4 / Hypothyroidism Subclinical ↑TSH (5-10) / Hypothyroidism Subclinical ↑TSH (10-20) / Hypothyroidism Subclinical ↑TSH (>20): iodine adapted, patients (percent of dose group)
Description: Female patients already receiving aqueous I2 therapy for fibrocystic breast condition were enrolled in study that ran for 36 months. Patients in this study were dosed at I2 levels that ranged from 3 to 12 mg/d. A total of 923 patients were enrolled; over 700 patients remained on drug for at least 2 years. The ages of participants ranged from 17 to 78 years with an average age of 47.4 years.
Variations in treatment emergent thyroid status were evaluated based on TSH and T4 values (see Table 1). […] Patients were categorized sub-clinical hypothyroid if TSH was elevated and T4 values were normal; patients with depressed T4 values were considered overtly hypothyroid.

For `II` [I2, molecular iodine], the “Hyperthyroidism Overt ↓TSH ↑T4” value (iodine naive women; I2 2.0 mg/d) was 0 (0.0), the “Hyperthyroidism Sub-clinical ↓TSH” value (iodine naive women; I2 2.0 mg/d) was 2 (3.4) and the “Hypothyroidism Overt ↑TSH (5-10) ↓T4” value (iodine naive women; I2 2.0 mg/d) was 1 (1.7). The “Hypothyroidism Overt ↑TSH (10-20) ↓T4” value (iodine naive women; I2 2.0 mg/d) was 0 (0.0), the “Hypothyroidism Overt ↑TSH (>20) ↓T4” value (iodine naive women; I2 2.0 mg/d) was 0 (0.0) and the “Hypothyroidism Sub-clinical ↑TSH (5-10)” value (iodine naive women; I2 2.0 mg/d) was 3 (5.2). For the same molecule, the “Hypothyroidism Sub-clinical ↑TSH (10-20)” value (iodine naive women; I2 2.0 mg/d) was 2 (3.4), the “Hypothyroidism Sub-clinical ↑TSH (>20)” value (iodine naive women; I2 2.0 mg/d) was 0 (0.0) and the “Hyperthyroidism Overt ↓TSH ↑T4” value (iodine naive women; I2 3.0 mg/d) was 2 (3.2). For the same molecule, the “Hyperthyroidism Sub-clinical ↓TSH” value (iodine naive women; I2 3.0 mg/d) was 0 (0.0), the “Hypothyroidism Overt ↑TSH (5-10) ↓T4” value (iodine naive women; I2 3.0 mg/d) was 0 (0.0) and the “Hypothyroidism Overt ↑TSH (10-20) ↓T4” value (iodine naive women; I2 3.0 mg/d) was 0 (0.0). The “Hypothyroidism Overt ↑TSH (>20) ↓T4” value (iodine naive women; I2 3.0 mg/d) was 0 (0.0), the “Hypothyroidism Sub-clinical ↑TSH (5-10)” value (iodine naive women; I2 3.0 mg/d) was 5 (8.1) and the “Hypothyroidism Sub-clinical ↑TSH (10-20)” value (iodine naive women; I2 3.0 mg/d) was 0 (0.0). For the same molecule, the “Hypothyroidism Sub-clinical ↑TSH (>20)” value (iodine naive women; I2 3.0 mg/d) was 0 (0.0), the “Hyperthyroidism Overt ↓TSH ↑T4” value (iodine naive women; I2 6.0 mg/d) was 0 (0.0) and the “Hyperthyroidism Sub-clinical ↓TSH” value (iodine naive women; I2 6.0 mg/d) was 2 (3.3). The “Hypothyroidism Overt ↑TSH (5-10) ↓T4” value (iodine naive women; I2 6.0 mg/d) was 0 (0.0), the “Hypothyroidism Overt ↑TSH (10-20) ↓T4” value (iodine naive women; I2 6.0 mg/d) was 0 (0.0) and the “Hypothyroidism Overt ↑TSH (>20) ↓T4” value (iodine naive women; I2 6.0 mg/d) was 1 (1.7). For the same molecule, the “Hypothyroidism Sub-clinical ↑TSH (5-10)” value (iodine naive women; I2 6.0 mg/d) was 6 (10), the “Hypothyroidism Sub-clinical ↑TSH (10-20)” value (iodine naive women; I2 6.0 mg/d) was 0 (0.0) and the “Hypothyroidism Sub-clinical ↑TSH (>20)” value (iodine naive women; I2 6.0 mg/d) was 0 (0.0). The “Hyperthyroidism Overt ↓TSH ↑T4” value (iodine naive women; I2 9.0 mg/d) was 2 (3.5), the “Hyperthyroidism Sub-clinical ↓TSH” value (iodine naive women; I2 9.0 mg/d) was 2 (3.5) and the “Hypothyroidism Overt ↑TSH (5-10) ↓T4” value (iodine naive women; I2 9.0 mg/d) was 2 (3.5). For the same molecule, the “Hypothyroidism Overt ↑TSH (10-20) ↓T4” value (iodine naive women; I2 9.0 mg/d) was 0 (0.0), the “Hypothyroidism Overt ↑TSH (>20) ↓T4” value (iodine naive women; I2 9.0 mg/d) was 1 (1.8) and the “Hypothyroidism Sub-clinical ↑TSH (5-10)” value (iodine naive women; I2 9.0 mg/d) was 8 (14). The “Hypothyroidism Sub-clinical ↑TSH (10-20)” value (iodine naive women; I2 9.0 mg/d) was 0 (0.0), the “Hypothyroidism Sub-clinical ↑TSH (>20)” value (iodine naive women; I2 9.0 mg/d) was 0 (0.0) and the “Hyperthyroidism Overt ↓TSH ↑T4” value (iodine naive women; I2 .03 mg/d) was 0 (0.0). The “Hyperthyroidism Sub-clinical ↓TSH” value (iodine naive women; I2 .03 mg/d) was 1 (1.5), the “Hypothyroidism Overt ↑TSH (5-10) ↓T4” value (iodine naive women; I2 .03 mg/d) was 0 (0.0) and the “Hypothyroidism Overt ↑TSH (10-20) ↓T4” value (iodine naive women; I2 .03 mg/d) was 0 (0.0). The “Hypothyroidism Overt ↑TSH (>20) ↓T4” value (iodine naive women; I2 .03 mg/d) was 0 (0.0), the “Hypothyroidism Sub-clinical ↑TSH (5-10)” value (iodine naive women; I2 .03 mg/d) was 3 (4.6) and the “Hypothyroidism Sub-clinical ↑TSH (10-20)” value (iodine naive women; I2 .03 mg/d) was 0 (0.0). For the same molecule, the “Hypothyroidism Sub-clinical ↑TSH (>20)” value (iodine naive women; I2 .03 mg/d) was 0 (0.0), the “relationship between daily dose and frequency of sub-clinical hypothyroidism” value (iodine naive women; Kendall's rank correlation p 0.0167, Cuzik's trend test p less than 0.01) was “correlated to the frequency of sub-clinical hypothyroidism” and the “Overt hypothyroidism, patients (second statement, compared to prevalence of overt hyperthyroidism)” value (iodine naive women; iodine naive patients) was 1.6%. For the same molecule, the “incidence of abnormal thyroid function, placebo versus treatment groups” value (iodine naive women; iodine naive patients, Fisher's exact test) was “did not differ”, the “Overt hypothyroidism, patients” value (iodine naive women; iodine naive patients, first statement) was 1.3% and the “percentage of administered iodine retained in the stomach contents and covalently bound to a lipid material” value [1] was “larger percentage”. The “percentage of iodine retained in thyroid 72 hours after administration, compared to iodide” value [1] was “significantly less”, the “retention of iodine in thyroid at 72 hours, less than with iodide” value ([1]; fasted rats, acute exposure) was “about 30%” and the “iodine uptake in thyroid compared to iodide” value ([2]; oral administration) was “half as much”. For the same molecule, the “reduction of thyroidal uptake by perchlorate” value ([2]; perchlorate 6 mg i.p., 2 hr predosing) was 40%, the “suppressing thyroid uptake of a challenge dose of 125iodide” value [3] was “less effective than iodide” and the “maximum period of storage in an aqueous environment” value [4] was 2 to 8 h. For the same molecule, the patients reporting headaches (women with mastalgia; 1.5 mg/day group) was 6.3%, the patients reporting headaches (women with mastalgia; 3.0 mg/day group) was 26% and the patients reporting headaches (women with mastalgia; 6.0 mg/day group) was 12%. The “change in five thyroid function tests (T3, T4, T uptake, TSH, FT3)” value (women with mastalgia; any treatment group) was “No statistically significant change”, the “change in the Lewin Overall pain scale” value ([5]; month 3) was 45.4% and the “change in the Lewin Overall pain scale” value ([5]; month 6) was 45.0%. For the same molecule, the “magnitude of pain reduction versus dose” value ([5]; 1.5, 3.0, 6.0 mg daily, month 3 and month 6 (p<0.01)) was “increased with dose”, the “difference among dosing groups in adverse events or thyroid related clinical chemistry tests” value ([5]; first 3 months of treatment) was “did not find any difference” and the “proportion of patients with sub-clinical hypothyroidism” value ([6]; 3 mg dose group) was 13%. The “rate of all sub-clinical conditions” value ([6]; 3 mg dose group) was 18.3%, the “proportion of patients with sub-clinical hypothyroidism” value ([6]; 6 mg dose group) was 16.5% and the “rate of all sub-clinical conditions” value ([6]; 6 mg dose group) was 22.2%. The “Hyperthyroidism Overt ↓TSH ↑T4” value ([6]; I2 3.0 mg/d) was 1 (0.3), the “Hyperthyroidism Subclinical ↓TSH” value ([6]; I2 3.0 mg/d) was 16 (5.3) and the “Hypothyroidism Overt ↑TSH (5-10) ↓T4” value ([6]; I2 3.0 mg/d) was 2 (0.4). The “Hypothyroidism Overt ↑TSH (10-20) ↓T4” value ([6]; I2 3.0 mg/d) was 0 (0.0), the “Hypothyroidism Overt ↑TSH (>20) ↓T4” value ([6]; I2 3.0 mg/d) was 0 (0.0) and the “Hypothyroidism Subclinical ↑TSH (5-10)” value ([6]; I2 3.0 mg/d) was 27 (9.0). For the same molecule, the “Hypothyroidism Subclinical ↑TSH (10-20)” value ([6]; I2 3.0 mg/d) was 10 (3.3), the “Hypothyroidism Subclinical ↑TSH (>20)” value ([6]; I2 3.0 mg/d) was 2 (0.7) and the “Hyperthyroidism Overt ↓TSH ↑T4” value ([6]; I2 6.0 mg/d) was 1 (0.2). The “Hyperthyroidism Subclinical ↓TSH” value ([6]; I2 6.0 mg/d) was 28 (5.7), the “Hypothyroidism Overt ↑TSH (5-10) ↓T4” value ([6]; I2 6.0 mg/d) was 0 (0.0) and the “Hypothyroidism Overt ↑TSH (10-20) ↓T4” value ([6]; I2 6.0 mg/d) was 2 (0.4). The “Hypothyroidism Overt ↑TSH (>20) ↓T4” value ([6]; I2 6.0 mg/d) was 2 (0.4), the “Hypothyroidism Subclinical ↑TSH (5-10)” value ([6]; I2 6.0 mg/d) was 70 (14) and the “Hypothyroidism Subclinical ↑TSH (10-20)” value ([6]; I2 6.0 mg/d) was 10 (2.0). For the same molecule, the “Hypothyroidism Subclinical ↑TSH (>20)” value ([6]; I2 6.0 mg/d) was 1 (0.2), the “Hyperthyroidism Overt ↓TSH ↑T4” value ([6]; I2 9.0 mg/d) was 0 (0.0) and the “Hyperthyroidism Subclinical ↓TSH” value ([6]; I2 9.0 mg/d) was 0 (0.0). The “Hypothyroidism Overt ↑TSH (5-10) ↓T4” value ([6]; I2 9.0 mg/d) was 0 (0.0), the “Hypothyroidism Overt ↑TSH (10-20) ↓T4” value ([6]; I2 9.0 mg/d) was 0 (0.0) and the “Hypothyroidism Overt ↑TSH (>20) ↓T4” value ([6]; I2 9.0 mg/d) was 0 (0.0). The “Hypothyroidism Subclinical ↑TSH (5-10)” value ([6]; I2 9.0 mg/d) was 0 (0.0), the “Hypothyroidism Subclinical ↑TSH (10-20)” value ([6]; I2 9.0 mg/d) was 1 (6.3) and the “Hypothyroidism Subclinical ↑TSH (>20)” value ([6]; I2 9.0 mg/d) was 1 (6.3). For the same molecule, the “Hyperthyroidism Overt ↓TSH ↑T4” value ([6]; I2 12.0 mg/d) was 0 (0.0), the “Hyperthyroidism Subclinical ↓TSH” value ([6]; I2 12.0 mg/d) was 1 (25) and the “Hypothyroidism Overt ↑TSH (5-10) ↓T4” value ([6]; I2 12.0 mg/d) was 0 (0.0). For the same molecule, the “Hypothyroidism Overt ↑TSH (10-20) ↓T4” value ([6]; I2 12.0 mg/d) was 0 (0.0), the “Hypothyroidism Overt ↑TSH (>20) ↓T4” value ([6]; I2 12.0 mg/d) was 0 (0.0) and the “Hypothyroidism Subclinical ↑TSH (5-10)” value ([6]; I2 12.0 mg/d) was 0 (0.0). For the same molecule, the “Hypothyroidism Subclinical ↑TSH (10-20)” value ([6]; I2 12.0 mg/d) was 0 (0.0), the “Hypothyroidism Subclinical ↑TSH (>20)” value ([6]; I2 12.0 mg/d) was 0 (0.0) and the “Overt hypothyroidism, patients (second statement, compared to prevalence of overt hyperthyroidism)” value ([6]; all patients, 3 to 12 mg/d) was 0.5%. The “overall incidence of treatment emergent sub-clinical hyper- or hypothyroidism” value ([6]; all patients, 3 to 12 mg/d) was 20.6% and the “Overt hypothyroidism, patients” value ([6]; all patients, 3 to 12 mg/d, first statement) was 0.2%.
